Measured values from patent US8815933B2 (EnVivo Pharmaceuticals, Inc., priority 2008, dated 2014).

Experiments:
[1] = system: normal subjects; experiment: Digit Symbol Substitution Test (DSST) in SAD study; format: in vivo, Human; conditions: daily dose as low as 1 mg
Experimental: The impact of the test compound on cognition in normal subjects was assessed as described below. In these studies, subjects were treated with the test compound dissolved in cranberry juice.
The impact of the test compound on cognition in normal subjects was assessed in a SAD (Single Ascending Dose) study with the Digit Symbol Substitution Test (DSST). […] The positive effects of the test compound in the DSST indicate a beneficial effect on working memory and executive function.

[2] = system: patients suffering from schizophrenia; experiment: MMN and P300 evoked responses (oddball sequence) in schizophrenia patients; format: in vivo, Human
Experimental: The test described above was used to study the effect of the test compound on cognition in patients suffering from schizophrenia. Prior to testing, the patients were dosed with: 1 mg of the test compound daily, 0.3 mg of the test compound daily or were administered a placebo for 20 days. Subjects were tested as described below.
The MMN and P300 components were elicited during the so-called oddball sequence. The stimulus sequence was a series of lower (500 Hz) and higher (1000 Hz) pitched pure tones presented at a rate of 1 tone per 0.6 sec. The tones were 50 msec in duration, 50 dB above hearing level, and randomly interspersed. The higher pitched tone was the oddball event. Across the series of 600 tones, it occurred at a probability of 0.2. The other tone occurred at the complementary probability of 0.8. Patients were instructed to ignore the tones and instead attend to a magazine held in the lap.
During the task, EEG and EOG activity were digitized at a rate of 500 Hz per channel for 50 msec preceding and 500 msec following stimulus onset. Trials contaminated by eyeblinks or eye movements were removed. An off-line program digitally filtered (bandpass=0.1-30 Hz, 12 db roll-off) responses to the rare and frequent events and constructed averaged event related responses for each electrode. At the FCz electrode, the MMN was measured by an automated algorithm that computed the summed amplitude, relative to the prestimulus baseline, over a 100-200 msec time window following the onsets of the rare (oddball) and frequent tones. MMN was then recalculated as the voltage difference between these responses. P300 amplitude was measured at the Pz electrode site as the peak amplitude between 250 and 500 msec following stimulus onset.
MMN and P300 amplitude reflect activation of multiple precortical and cortical pathways sensitive to stimulus novelty, short term memory, and attention. MMN was calculated as the voltage difference over 100-200 msec post-stimulus onset between the responses to the rare and frequent stimuli. […] P300 is not entirely independent of MMN. P300 was calculated as the peak amplitude relative to the average voltage of the waveform during the 50 msec prestimulus period. A more positive P300 response is indicative of improved cognitive function. P300 is maximal in amplitude when the eliciting stimulus is both rare and task relevant (i.e., attended). In the present study, the rare stimulus was not task relevant. In fact, the patient was instructed to perform no task and to ignore the stimuli. In the present study, therefore, P300 amplitude is very small in comparison to amplitudes recorded under active task conditions. The present P300 component is more similar to the small, frontally-generated P300a described by Knight and colleagues than the large, parietally-generated P300b described in most studies of attentional dysfunction in schizophrenia.
In the analysis of P50 and N100 the baseline value was the covariate and all values obtained during the treatment period were averaged together. Data loss from unidentifiable MMN and P300 components was minimal. These analyses were conducted upon data obtained from n=4 patients treated with placebo, n=7 patients treated with 0.3 mg of the test compound, and n=8 patients treated with 1.0 mg of the test compound.

[3] = system: normal subjects; experiment: CogState battery in MAD studies; format: in vivo, Human
Experimental: The impact of the test compound on cognition in normal subjects was assessed as described below. In these studies, subjects were treated with the test compound dissolved in cranberry juice. In the MAD (Multiple Ascending Dose) studies cognition was assessed using tests from the CogState battery (cogstate.com). […] The CogState battery is a proprietary computerized cognitive battery of tests measure various cognitive domains including: attention, identification capability, working memory, visual memory, and executive function. […] The magnitude of the effects were, in many cases, significant with effect sizes being >0.4 (a threshold effect size which is commonly accepted as having clinical significance).

[4] = maximum plasma concentration in human SAD/MAD clinical trials; format: in vivo; conditions: for Cmax: plasma, oral
Experimental: Multiple ascending dose (MAD) human clinical trials were conducted.
These values are 35-2000 times lower than would have anticipated if efficacy was to be achieved when the free plasma concentration reached the Ki or the ECref concentrations. […] These values are 9.4-667 times lower than expected.

[5] = as above; format: in vivo; conditions: SAD, Day 1, 3.5 mg
[6] = system: patients suffering from schizophrenia; experiment: P50 sensory gating evoked response in schizophrenia patients; format: in vivo, Human
Experimental: The test described above was used to study the effect of the test compound on cognition in patients suffering from schizophrenia. Prior to testing, the patients were dosed with: 1 mg of the test compound daily, 0.3 mg of the test compound daily or were administered a placebo for 20 days. Subjects were tested as described below. P50 waves were elicited by clicks, 1 msec in duration, grouped in pairs in the classic S1-S2 sequence and presented through earpieces inserted into the auditory canals. Click intensity was adjusted individually to 50 dB above the hearing threshold. The offset-to-onset time from S1 to S2 was fixed at 500 msec. The offset-to-onset time between click pairs was varied from 7-11 sec. […] P50 response amplitude was calculated as the voltage difference between the P50 peak and the preceding negative trough. The P50 gating ratio was then calculated after (Olincy et al., 2006) as the amplitude of the P50 response to the second (test) stimulus divided by the amplitude of the P50 response to the first (conditioning) stimulus. […] The P50 amplitude difference (Fuerst et al., 2007) was also measured. […] Unfortunately, in the case of the P50/[…] gating study, it was necessary to discard several patients and post-treatment assignment time points from the analysis because, in those instances, a P50 waveform was not identifiable and therefore could not be measured. […]

[7] = half-life in dog; conditions: in vivo, iv
[8] = half-life in humans (clinical trials); format: in vivo, Human; conditions: for half-life: plasma, 1 mg
From the text: The unexpectedly long half-life in humans has several advantages. It allows for once a day dosing. The drug will also have a very small dynamic plasma range over the course of a day (about 15-20%). Thus, if a patient misses a daily dose, the plasma level and the consequent brain level will not be altered by a great degree. This means that the beneficial effects of the drug will be less dependent upon careful adherence to a specific dosing scheme. Third, long half-life and slow elimination also mean that the final dose will be lower than expected. This readily observed by looking at the Cmax values on Day 1 versus Day 21. The Cmax values on Day 21 are about 3.6-4.2 times higher than the Day 1 values. This ratio will translate into a dose that is 3.6-4.2 times lower than would normally be expected due to this favorable accumulation.

[9] = free fraction of drug in human plasma
Experimental: (§1) The free drug concentration in plasma ([free drug]plasma) is determined by measuring the total drug concentration in the plasma ([total drug]plasma) and the free fraction of the drug, i.e., the fraction of the drug that is not bound to plasma protein (fuplasma):[free drug]plasma=[total drug]plasmaX fuplasma. The total plasma drug concentration and the fraction that binds to plasma protein can both be measured using techniques known to those of skill in the art.

[10] = half-life in rat; conditions: in vivo, iv, 1 mg/kg
[11] = free fraction of drug in dog plasma
Experimental: as §1

[12] = free fraction of drug in rat plasma
Experimental: as §1

Cl.O=C(N[C@H]1CN2CCC1CC2)c1cc2cccc(Cl)c2s1
cognition in Digit Symbol Substitution Test [1]: pro-cognitive effects
MMN component vs placebo ([2]; 0.3 mg daily for 20 days): significantly (p<0.05) larger
P300 component vs placebo ([2]; 0.3 mg daily for 20 days): significantly (p<0.05) larger
MMN component vs placebo ([2]; 1.0 mg daily for 20 days): significantly (p<0.05) larger
P300 component vs placebo ([2]; 1.0 mg daily for 20 days): significantly (p<0.05) larger
MMN amplitude ([2]; 0.3 and 1.0 mg daily, dose-related, F=4.96, P=0.02, FIG. 3A): increased
P300 amplitude ([2]; 0.3 and 1.0 mg daily, dose-related, F=6.88, P=0.008, FIG. 3B): increased
effect sizes ([3]; CogState, in many cases): > 0.4
effect on attention ([3]; CogState, normal subjects): without having a stimulatory effect on attention
impact on visual motor skills, learning, executive function, and delayed memory ([3]; normal subjects, MAD studies, CogState): positive impact
cognition in CogState battery ([3]; normal subjects, MAD studies, daily dose as low as 1 mg): pro-cognitive effects
maximum free plasma concentration ([4]; 0.3 mg dose, human): 0.073 to 0.283 nM
free plasma concentration ([4]; 1.0 mg doses, human): 0.237 to 1.06 nM
Cmax free ([4]; MAD1, Day 1, 1 mg): 0.252 nM
Cmax total ([4]; MAD1, Day 1, 1 mg): 1.96 nM
Cmax free ([4]; MAD1, Day 7, 1 mg): 0.853 nM
Cmax total ([4]; MAD1, Day 7, 1 mg): 6.61 nM
Cmax free ([4]; MAD1, Day 14, 1 mg): 1.06 nM
Cmax total ([4]; MAD1, Day 14, 1 mg): 8.23 nM
Cmax free ([4]; MAD2, Day 1, 0.1 mg): 0.022 nM
Cmax total ([4]; MAD2, Day 1, 0.1 mg): 0.172 nM
Cmax free ([4]; MAD2, Day 1, 1 mg): 0.251 nM
Cmax total ([4]; MAD2, Day 1, 1 mg): 1.943 nM
Cmax free ([4]; MAD2, Day 21, 0.1 mg): 0.093 nM
Cmax total ([4]; MAD2, Day 21, 0.1 mg): 0.724 nM
Cmax free ([4]; MAD2, Day 21, 1 mg): 0.974 nM
Cmax total ([4]; MAD2, Day 21, 1 mg): 7.547 nM
Cmax free ([4]; MAD3, Day 1, 0.3 mg): 0.073 nM
Cmax total ([4]; MAD3, Day 1, 0.3 mg): 0.568 nM
Cmax free ([4]; MAD3, Day 1, 1 mg): 0.221 nM
Cmax total ([4]; MAD3, Day 1, 1 mg): 1.71 nM
Cmax free ([4]; MAD3, Day 21, 0.3 mg): 0.283 nM
Cmax total ([4]; MAD3, Day 21, 0.3 mg): 2.195 nM
Cmax free ([4]; MAD3, Day 21, 1 mg): 0.800 nM
Cmax total ([4]; MAD3, Day 21, 1 mg): 6.20 nM
Cmax free ([4]; SAD, Day 1, 1 mg): 0.237 nM
Cmax total ([4]; SAD, Day 1, 1 mg): 1.84 nM
Cmax total ([4]; SAD, Day 1, 3.5 mg): 6.42 nM
Cmax ([4]; human, 0.1 mg, MAD2, Day 1, 0.1 mg): 0.055 ng/mL
Cmax ([4]; human, 0.1 mg, MAD2, Day 21, 0.1 mg): 0.232 ng/mL
Cmax ([4]; human, 0.3 mg, MAD3, Day 1, 0.3 mg): 0.182 ng/mL
Cmax ([4]; human, 0.3 mg, MAD3, Day 21, 0.3 mg): 0.704 ng/mL
Cmax ([4]; human, 1 mg, MAD1, Day 1, 1 mg): 0.63 ng/mL
Cmax ([4]; human, 1 mg, MAD1, Day 7, 1 mg): 2.12 ng/mL
Cmax ([4]; human, 1 mg, MAD1, Day 14, 1 mg): 2.64 ng/mL
Cmax ([4]; human, 1 mg, MAD2, Day 1, 1 mg): 0.623 ng/mL
Cmax ([4]; human, 1 mg, MAD2, Day 21, 1 mg): 2.42 ng/mL
Cmax ([4]; human, 1 mg, MAD3, Day 1, 1 mg): 0.547 ng/mL
Cmax ([4]; human, 1 mg, MAD3, Day 21, 1 mg): 1.99 ng/mL
Cmax ([4]; human, 1 mg, SAD, Day 1, 1 mg): 0.59 ng/mL
Cmax ([4]; human, 3.5 mg, SAD, Day 1, 3.5 mg): 2.06 ng/mL
Cmax free [5]: 0.828 nM
P50 amplitude difference (C-T), baseline-adjusted ([6]; 1.0 mg daily for 20 days vs placebo, FIG. 1B, F=3.97, P=0.07): normalization at the high dose
effects on the P50 component of the evoked response ([6]; limited to 1.0 mg dose, p=0.1): technically not significant

O=C(N[C@H]1CN2CCC1CC2)c1cc2cccc(Cl)c2s1
half-life ([7]; 0.5 mg/kg): 5.39 h
half-life ([7]; 3 mg/kg): 13 h
half-life ([8]; human, oral, read-out: observed half-life in humans (converted)): 60 h
half-life ([8]; po, Human, p.o., read-out: t1/2): 50.1 to 70.1 h
human half-life suggested by initial allometric scaling ([8]; scaled from rat and dog half-life): about 8 hours
Human fuplasma [9]: 0.129
half-life [10]: 2.77 h
dynamic plasma range over the course of a day ([4]; human, once a day dosing): 15-20%
Dog fuplasma [11]: 0.107
Rat fuplasma [12]: 0.112
